Test results published in publication PMC5628898, “Does consumption of red grapefruit juice alter naringenin concentrations in milk produced by breastfeeding mothers?” (PLoS ONE, 2017).
Like-named read-outs stand apart in the source and are kept apart here.

Legend:
[1] = rat, cited from earlier work
[2] = Naringenin concentration in milk of breastfeeding mothers on naringenin-restricted diet, before and after 250 ml red grapefruit juice (HPLC after deconjugation); assay type: in vivo; settings: for k el / Cmax / AUC, mean / AUC, median: human milk; for k el: last points; for Cmax / AUC, mean / AUC, median: n 14; for AUC, mean / AUC, median: trapezoidal method
Description: Prior to enrollment, each volunteer was informed about the course and aim of the study, and signed the informed consent. They were also provided with oral and written instructions on the diet that disallowed consumption of any naringenin-containing foods and beverages. The volunteers agreed to follow the diet and not to take any vitamin supplements or any other food supplements for the duration of their participation in the study. They followed the diet for a total of 5 days, refraining from eating foods containing larger quantities of naringenin, such as citrus fruits, citrus fruit juices, citrus fruit pulps, tomatoes and tomato-containing food products, aromatic herbs. For the first two days of the study (pre-exposure) the volunteers collected breast milk samples every 12 hours, each in the amount of four to six ml. On the third day of the study they drank a single 250 ml serving of red grapefruit juice (a 250 ml bottle) in the morning on an empty stomach. In this part of the experiment, the volunteers collected breast milk samples at the following time points: 0 (directly before drinking the juice) and 1, 2, 3, 4, 5, 6, 12, 18, 24, 36 hours post-exposure. Milk samples were collected from full breasts. Milk was collected into chemically pure disposable plastic test tubes.
The samples were frozen by the volunteers at –20°C, regularly collected from the volunteers by the investigator, transported in a laboratory deep freezer, and frozen to –80°C until analysis. Each sample was labelled with the volunteer's initials and with the date and time of sampling. During the study, we remained in constant telephone contact with the volunteers. A commercial 100% grapefruit juice originating from ecological farms in Israel, in 250 ml bottles, were used in the study. The juice was purchased from a local grocery wholesaler. All the bottles were labelled with the same lot number.
Naringenin was extracted according to the method described by Song et al. with minor changes. In brief, an aliquot (0.5 ml) of undiluted human milk was defatted two times with 2-ml of hexane. After the lipid removal, 25 μl of L-Ascorbic acid (2.7 mmol/l in ultrapure water), 25 μl of Na2-ethylenediaminetetraacetic acid (2.2 mmol/l in ultrapure water) and 3 ml of pepsin (40 mg/ml in 0.1 N HCl) were added. The samples were incubated in a ThermoMixer C (Eppendorf AG., Germany) for 15 min at 37°C and at 300 rpm. Then, the pH of the sample was adjusted to 4.5 with 1.0 N NaOH and 3.86 kU of β-glucuronidase with sulfatase contaminant was added. Afterwards the samples were incubated for 45 min at 37°C and at 300 rpm in a ThermoMixer C. After deconjugation the potential metabolites (glucuronides and sulfate derivatives) to aglycones using β-glucuronidase/sulfatase treatment, naringenin was extracted with a 3-ml aliquot of ethyl acetate of tree times, dried under vacuum and resuspended in 200 μl of mobile phase B before analysis.
Naringenin analysis was done on a Shimadzu HPLC system (Kyoto, Japan), equipped with binary pump (LC-20 AD), degasser (DGU-20A3), refrigerated autosampler (SIL-20 AC, set at 8°C), a column oven (CTO-20 AC, 30°C), a diode array detector (SPD-M20A) and a mass spectrometry detector (2010EV). Separations were performed on Kinetex XB-C18 column (100×2.1 mm, 2.6 μm particle size, Phenomenex) at 0.2 ml min^−1 flow rate. The mobile phase consisted of A: 0.4% formic acid in ultrapure water and B: 0.4% formic acid, 0.4% isopropyl alcohol in methanol. The initial conditions of gradient program were set at 98:2 (A/B) followed by a linear gradient to 55:45 (A/B) at 15 min, 20:80 (A/B) at 30 min, 98:2 (A/B) at 35 min and at 40 min, stop. The injection volume was 10 μl. Naringenin was quantified at 287 nm. MS spectra were acquired in positive ion mode over the range of m/z 50–500, both using SCAN and SIM acquisition mode (the set of SIM included 273,25 m/z). […]

[3] = system: organic anion transporting polypeptide (OATP); parameters: method as in PMID 23794501; settings: cited from earlier work
[4] = female, human, in vivo, Mean naringenin concentration in human milk

Structure (SMILES): O=C1C[C@@H](c2ccc(O)cc2)Oc2cc(O[C@@H]3O[C@H](CO)[C@@H](O)[C@H](O)[C@H]3O)cc(O)c21 [7-glucoside]
- Time at which increase in serum naringenin concentration was observed ([1]; in vivo): three

Structure (SMILES): O=C1C[C@@H](c2ccc(O)cc2)Oc2cc(O)cc(O)c21 [naringenin]
- Range of naringenin concentrations in initial (baseline) milk samples ([2]; female, human, in vivo): 420.86 to 1568.89 nmol/L
- k el ([2]; female, human, in vivo, 250 ml, post-exposure segment, n 11, read-out: Kel (elimination constant), mean (converted)): 3.89e-06 s⁻¹
- k el ([2]; female, human, in vivo, 250 ml, post-exposure segment, n 11, read-out: Kel (elimination constant), median (converted)): 3.61e-06 s⁻¹
- Cmax ([2]; female, human, in vivo, 250 ml, post-exposure segment, read-out: Cmax, mean): 908 nM
- Cmax ([2]; female, human, in vivo, 250 ml, post-exposure segment, read-out: Cmax, median): 714 nM
- Mean naringenin concentration in human milk ([2]; female, human, in vivo, 4 h): 908.253 nmol/L
- Mean naringenin concentration in human milk ([2]; female, human, in vivo, 12 h): 868.960 nmol/L
- concentration at 0 h [2, 4]: 674 nM
- concentration at 1 h [2, 4]: 773 nM
- concentration at 2 h [2, 4]: 651 nM
- concentration at 3 h [2, 4]: 649 nM
- concentration at 4 h [2, 4]: 908 nM
- concentration at 5 h [2, 4]: 704 nM
- concentration at 6 h [2, 4]: 650 nM
- concentration at 12 h [2, 4]: 869 nM
- concentration at 18 h [2, 4]: 772 nM
- concentration at 24 h [2, 4]: 728 nM
- concentration at 36 h [2, 4]: 702 nM
- concentration at -12 h [2, 4]: 702 nM
- concentration at -24 h [2, 4]: 844 nM
- concentration at -36 h [2, 4]: 910 nM
- concentration at -48 h [2, 4]: 823 nM
- k el ([2]; female, human, in vivo, pre-exposure segment, n 5, read-out: Kel (elimination constant), mean (converted)): 5.56e-06 s⁻¹
- k el ([2]; female, human, in vivo, pre-exposure segment, n 5, read-out: Kel (elimination constant), median (converted)): 5.56e-06 s⁻¹
- Cmax ([2]; female, human, in vivo, pre-exposure segment, read-out: Cmax, mean): 910 nM
- Cmax ([2]; female, human, in vivo, pre-exposure segment, read-out: Cmax, median): 762 nM
- Cmax ([2]; post-exposure segment, read-out: Cmax, mean): 908 nM
- AUC, mean ([2]; post-exposure, 0 h to 36 h): 27419 (nmol/l)*h
- AUC, median ([2]; post-exposure, 0 h to 36 h): 23715 (nmol/l)*h
- AUC, mean ([2]; pre-exposure, -36 h to 0 h): 27455 (nmol/l)*h
- AUC, median ([2]; pre-exposure, -36 h to 0 h): 26515 (nmol/l)*h
- Time at which increase in serum naringenin concentration was observed ([1]; after feeding the compound): three
- Inhibition of OATP [3]: potent inhibitor

Structure (SMILES): C[C@@H]1O[C@@H](O[C@H]2[C@H](Oc3cc(O)c4c(c3)O[C@H](c3ccc(O)cc3)CC4=O)O[C@H](CO)[C@@H](O)[C@@H]2O)[C@H](O)[C@H](O)[C@H]1O [naringin, 4’, 5,7-trihydroxyflavanone-7-rhamnoglucoside]
- Time at which increase in serum naringenin concentration was observed ([1]; after feeding the compound): ten
